According to paper PMC9021288 (Nature Communications, 2022):
pIC50: −log10 of the molar value. Where “and” joins values, the source holds several entries; their conditions need not be identical. Identical values can stand only once. Like-named read-outs stand apart in the source and are kept apart here.

How the values were obtained:
P. falciparum Dd2-B2 = experiment: 72-h flow cytometry IC50 assay, Dd2-B2 and resistant Dd2-B2; assay type: cell-based, Plasmodium falciparum
Protocol: Replication assays were performed using a SYBR Green method as described previously. Briefly, asynchronous parasites were diluted to 0.83% parasitemia, 3% hematocrit in 30 µl medium, and added to 30 µl of diluted compounds in medium (0.1% DMSO final concentration) in black 384-wells plates. After a 72-h incubation, 30 µl of SYBR Green diluted in lysis buffer was added according to the manufacturer’s protocol (Life Technologies). Fluorescence intensity was measured on a BioTek Synergy 2 Plate Reader after 1-h incubation and was normalized to a DMSO control (100% growth) and DHA- or epoxomicin-treatment (no growth). […] Parasite survival was assessed by flow cytometry on an Accuri C6 (BD Biosciences) with BD C6 Plus software using SYBR Green and MitoTracker Deep Red FM (Life Technologies) as nuclear stain and vital dye, respectively, and data were analyzed using FlowJo (10.5.0). […] Luminescence was measured after 72 h using the Renilla-Glo(R) Luciferase Assay System (Promega E2750) and the GlomAX® Discover Multimode Microplate Reader (Promega). The luminescence values were normalized to DMSO vehicle (100% growth) and 200 nM chloroquine-treated (no growth) samples as controls.

[1] = system: P. falciparum 3D7 trophozoite-infected RBCs, CoA pathway metabolites; experiment: Metabolomics of treated infected RBCs (LC/MS); assay type: cell-based, Plasmodium falciparum
Protocol: P. falciparum metabolomics analysis was performed by LC/MS as previously described. Briefly, parasite cultures were tightly synchronized at the ring stage one cycle prior to extraction. Trophozoite cultures at 5-10% parasitemia were purified to >90% parasitemia by magnetic purification. Parasites were counted using a hemocytometer, aliquoted to 1 × 10^8 cells per condition in 5 ml medium and then placed into an incubator for 1 h to allow them to reach a metabolically stable state. […] Blank processing samples were also quenched in the same manner to assess background metabolite levels. The samples were centrifuged, the supernatant was collected in a new tube, dried using a nitrogen gas drying rack and stored at -80 °C until they were run on the LC/MS platform.
For each analytical run, a pooled sample was generated by combining equivalent volumes of each parasite sample to assess metabolite detection and run at the beginning, middle, and end of each analytical batch to detect any possible time-dependent sensitivity changes. The full metabolomics datasets are publicly available on the Metabolomics Workbench database under ST001985[76].

AcAS (PF3D7_0627800) = experiment: Cellular thermal shift assay on parasite lysate; assay type: binding, Plasmodium falciparum; settings: 1 µM; for AcAS band intensity normalized to DMSO at 37 °C: listed as iPanAm
Protocol: A cellular thermal shift assay (CETSA) was performed on infected RBCs or parasite lysates as described previously.
For a CETSA on parasite lysates, synchronized trophozoite cultures (ACS11-tagged parasites) were treated with 0.1% saponin to lyse the RBCs, and washed three times in PBS. Subsequently, parasite pellets were resuspended in 1× lysis buffer and subjected to three flash-freeze-thaw cycles using liquid nitrogen, followed by mechanical shearing using a syringe with a 25 G and a 30 G needle. Samples were spun down at 18,000 g for 20 min at 4 °C. The supernatant was diluted to 2.1 mg/ml protein concentration, and 100 µl was added to each PCR tube containing 1 µl of the compound at a 100× concentration (final concentration of 1 µM). Samples were incubated for 30 min at room temperature, subjected to a thermal gradient for 3 min on a pre-heated PCR machine, followed by 4 °C for 3 min. Samples were spun down at 18,000 g for 20 min at 4 °C and the soluble fraction was flash-frozen in liquid nitrogen and stored at −80 °C.
Samples were loaded on an 8% SDS-Page gel (Genscript) with 4×10^6 infected RBCs or 50 µg protein for the parasite lysate approach. Proteins were transferred to a nitrocellulose membrane that was blocked with 5% skim milk (Sigma) in PBS overnight and incubated with rabbit antiserum against AcAS (1:1000) for 1 h. Subsequently, membranes were washed three times with PBS-Tween for 5 min, followed by incubation with secondary horseradish peroxide (HRP)-conjugated goat anti-rabbit antibodies (Dako P0448, 1:1000) for 1 h. Blots were then washed three times with PBS-Tween for 5 min and twice with PBS. Following a 5-min incubation with Clarity Max Western ECL Substrate (BioRad), protein blots were imaged using the ImageQuant LAS4000 (GE Healthcare). The band intensity was quantified using Fiji software.

panel of human enzymes = experiment: Off-target enzyme and uptake assays (Eurofins CEREP); assay type: biochemical; settings: for % Inhibition of Control Values: Rep1, Rep2, Mean

C[C@@H](CNC(=O)[C@H](O)C(C)(C)CO)NC(=O)c1cc(F)c(F)cc1F [MMV693183]
IC50 shift (P. falciparum Dd2-B2; 1x10^9 Dd2-B2 selected at 12-27 nM): 13 x
Parasite growth, dose-response (No drug = 100) (P. falciparum Dd2-B2; Dd2-B2, Log concentration (M) -8.61866): 46.9671 and 65.9341 and 69.186 and 60.7743
Parasite growth, dose-response (No drug = 100) (P. falciparum Dd2-B2; Dd2-B2, Log concentration (M) -8.91969): 65.3709 and 69.9634 and 65.2132 and 74.7261
Parasite growth, dose-response (No drug = 100) (P. falciparum Dd2-B2; Dd2-B2, Log concentration (M) -9.22072): 72.0216 and 80.9524 and 81.3953 and 76.7714
Parasite growth, dose-response (No drug = 100) (P. falciparum Dd2-B2; Dd2-B2, Log concentration (M) -9.52175): 91.6867 and 88.6447 and 91.0853 and 95.8364
Parasite growth, dose-response (No drug = 100) (P. falciparum Dd2-B2; Dd2-B2, Log concentration (M) -9.82278): 93.0054 and 90.8425 and 98.7403 and 95.3251
pIC50 (P. falciparum Dd2-B2; Dd2-B2, read-out: IC50): 8.75 and 8.56 and 8.45 and 8.52
pIC50 (P. falciparum Dd2-B2; Dd2-B2, read-out: mean IC50): 8.52
Parasite growth, dose-response (No drug = 100) (P. falciparum Dd2-B2; FL1, Log concentration (M) -7.11351): 0
Parasite growth, dose-response (No drug = 100) (P. falciparum Dd2-B2; FL1, Log concentration (M) -7.41454): 70.2458 and 55.9122
Parasite growth, dose-response (No drug = 100) (P. falciparum Dd2-B2; FL1, Log concentration (M) -7.71557): 80.5951 and 111.824
Parasite growth, dose-response (No drug = 100) (P. falciparum Dd2-B2; FL1, Log concentration (M) -8.0166): 100 and 101.689
Parasite growth, dose-response (No drug = 100) (P. falciparum Dd2-B2; FL1, Log concentration (M) -8.31763): 93.5317 and 96.6216
Parasite growth, dose-response (No drug = 100) (P. falciparum Dd2-B2; FL1, Log concentration (M) -8.61866): 96.119 and 101.689
Parasite growth, dose-response (No drug = 100) (P. falciparum Dd2-B2; FL1, Log concentration (M) -8.91969): 78.0078 and 118.581
Parasite growth, dose-response (No drug = 100) (P. falciparum Dd2-B2; FL1, Log concentration (M) -9.22072): 94.8254 and 105.068
Parasite growth, dose-response (No drug = 100) (P. falciparum Dd2-B2; FL1, Log concentration (M) -9.52175): 101.294 and 83.1081
Parasite growth, dose-response (No drug = 100) (P. falciparum Dd2-B2; FL1, Log concentration (M) -9.82278): 85.7697 and 115.203
pIC50 (P. falciparum Dd2-B2; FL1, read-out: IC50): 7.35 and 7.41
Parasite growth, dose-response (No drug = 100) (P. falciparum Dd2-B2; FL2, Log concentration (M) -7.11351): 0
Parasite growth, dose-response (No drug = 100) (P. falciparum Dd2-B2; FL2, Log concentration (M) -7.41454): 60.4288 and 62.4542
Parasite growth, dose-response (No drug = 100) (P. falciparum Dd2-B2; FL2, Log concentration (M) -7.71557): 82.846 and 84.7985
Parasite growth, dose-response (No drug = 100) (P. falciparum Dd2-B2; FL2, Log concentration (M) -8.0166): 96.8811 and 77.6557
Parasite growth, dose-response (No drug = 100) (P. falciparum Dd2-B2; FL2, Log concentration (M) -8.31763): 88.499 and 88.6447
Parasite growth, dose-response (No drug = 100) (P. falciparum Dd2-B2; FL2, Log concentration (M) -8.61866): 105.458 and 84.9817
Parasite growth, dose-response (No drug = 100) (P. falciparum Dd2-B2; FL2, Log concentration (M) -8.91969): 80.5068 and 77.1062
Parasite growth, dose-response (No drug = 100) (P. falciparum Dd2-B2; FL2, Log concentration (M) -9.22072): 101.365 and 80.4029
Parasite growth, dose-response (No drug = 100) (P. falciparum Dd2-B2; FL2, Log concentration (M) -9.52175): 71.345 and 104.029
Parasite growth, dose-response (No drug = 100) (P. falciparum Dd2-B2; FL2, Log concentration (M) -9.82278): 92.0078 and 88.4615
pIC50 (P. falciparum Dd2-B2; FL2, read-out: IC50): 7.39 and 7.38
Parasite growth, dose-response (No drug = 100) (P. falciparum Dd2-B2; FL3, Log concentration (M) -7.11351): 0
Parasite growth, dose-response (No drug = 100) (P. falciparum Dd2-B2; FL3, Log concentration (M) -7.41454): 54.4365 and 48.2063
Parasite growth, dose-response (No drug = 100) (P. falciparum Dd2-B2; FL3, Log concentration (M) -7.71557): 83.9329 and 95.9641
Parasite growth, dose-response (No drug = 100) (P. falciparum Dd2-B2; FL3, Log concentration (M) -8.0166): 96.6427 and 92.1525
Parasite growth, dose-response (No drug = 100) (P. falciparum Dd2-B2; FL3, Log concentration (M) -8.31763): 96.6427 and 93.0493
Parasite growth, dose-response (No drug = 100) (P. falciparum Dd2-B2; FL3, Log concentration (M) -8.61866): 96.1631 and 96.6368
Parasite growth, dose-response (No drug = 100) (P. falciparum Dd2-B2; FL3, Log concentration (M) -8.91969): 103.118 and 89.9103
Parasite growth, dose-response (No drug = 100) (P. falciparum Dd2-B2; FL3, Log concentration (M) -9.22072): 91.1271 and 102.466
Parasite growth, dose-response (No drug = 100) (P. falciparum Dd2-B2; FL3, Log concentration (M) -9.52175): 106.954 and 82.7354
Parasite growth, dose-response (No drug = 100) (P. falciparum Dd2-B2; FL3, Log concentration (M) -9.82278): 109.113 and 91.4798
pIC50 (P. falciparum Dd2-B2; FL3, read-out: IC50): 7.42
Fold change 4'P-Pan ([1]; 24 nM): 0.6372 and 0.7412
Fold change Ac-CoA ([1]; 24 nM): 0.5886 and 0.6667
Fold change CoA ([1]; 24 nM): 1.122
Fold change Pan ([1]; 24 nM): 0.8146 and 0.8416
Fold change 4'P-Pan ([1]; 240 nM): 0.3498 and 0.3568
Fold change CoA ([1]; 240 nM): 1.064
Fold change Pan ([1]; 240 nM): 1.253 and 0.7224
effect on endogenous metabolites ([1]; dose-dependent): reduced acetyl-CoA and 4-phosphopantothenate levels
AcAS band intensity normalized to DMSO at 37 °C (AcAS (PF3D7_0627800); 37 °C): 134.836
AcAS band intensity normalized to DMSO at 37 °C (AcAS (PF3D7_0627800); 42 °C): 174.374
AcAS band intensity normalized to DMSO at 37 °C (AcAS (PF3D7_0627800); 47 °C): 76.9786
AcAS band intensity normalized to DMSO at 37 °C (AcAS (PF3D7_0627800); 52 °C): 24.7861
AcAS thermal stability (AcAS (PF3D7_0627800); 30 min, parasite lysate): neither the parent compound MMV693183 nor its derivative 4’P-MMV693183 affected AcAS stability
induction, GABA transaminase (panel of human enzymes; 10 µM): 30.7%
inhibition, HDAC11 (panel of human enzymes; 10 µM): 36.9%
inhibition/induction, all other enzyme and uptake assays (panel of human enzymes; 10 µM): less than 25%
% Inhibition of Control Values (panel of human enzymes; ATPase (Na+/K+)): -2.75% and -1.9% and -3.6%
% Inhibition of Control Values (panel of human enzymes; CENP-E (h)): -0.4% and -0.6% and -0.2%
% Inhibition of Control Values (panel of human enzymes; COX1(h)): -4.65% and -5.4% and -3.9%
% Inhibition of Control Values (panel of human enzymes; Eg5 (h)): -5.55% and -2% and -9.1%
% Inhibition of Control Values (panel of human enzymes; GABA transaminase): -30.7% and -29.5% and -31.9%
% Inhibition of Control Values (panel of human enzymes; HDAC6 (h)): -14.7% and -18.7% and -10.7%
% Inhibition of Control Values (panel of human enzymes; HDAC11 (h)): 36.9% and 32.5% and 41.3%
% Inhibition of Control Values (panel of human enzymes; MAO-A (h)): 1.7% and -0.1% and 3.5%
% Inhibition of Control Values (panel of human enzymes; MAO-B (h) recombinant enzyme): -1.9%
% Inhibition of Control Values (panel of human enzymes; PDE1B (h)): 0.9% and -2.7% and 4.5%
% Inhibition of Control Values (panel of human enzymes; PDE2A1 (h)): -1% and -4.3% and 2.3%
% Inhibition of Control Values (panel of human enzymes; PDE3A (h)): 1.1% and -1.7% and 3.9%
% Inhibition of Control Values (panel of human enzymes; PDE5 (h) (non-selective)): -3.55% and -4.2% and -2.9%
% Inhibition of Control Values (panel of human enzymes; acetylcholinesterase (h)): 5.45% and 8.7% and 2.2%
% Inhibition of Control Values (panel of human enzymes; phosphatase 1B (h) (PTP1B)): 10.8% and 11.2% and 10.4%
% Inhibition of Control Values (panel of human enzymes; phosphatase CDC25A (h)): -0.35% and -5% and 4.3%
% Inhibition of Control Values (panel of human enzymes; sirtuin 1 (h) (inhibitor effect)): -1.45% and -1.9% and -1%
% Inhibition of Control Values (panel of human enzymes; tyrosine hydroxylase): -0.5% and 2.4% and -3.4%
